The record followed here is ChEMBL document CHEMBL3507680, “University of Dundee, Gates Library screen for HepG2 cell viability”.

Molecules are shown by their SMILES.

This data set can be described thus: Human HepG2 cell viability assay in 384 well format. The data set is classed as toxicity, cell-based. More on the design: dose 125 nL, time 70.5 hour; concentration not given beside the values. Particulars: HepG2 cells, read-out: Inhibition.

Turning to `Cc1cc(C(=O)N2CCCC(N3CCCCCC3)C2)nn1C(C)(C)C` (stereo not given), the cytotoxicity at 70.5 h worked out at 16.8%.

As for `COc1cc(C(=O)N(C)C)ccc1NC(=O)c1ccsc1`, the cytotoxicity at 70.5 h came to 1.32%. With `CN(CC1CC1)C(=O)CN1CCCC1c1cnn(C)c1` (stereo not given) the figure was 1.65%. For the compound `CC(=O)Nc1nc(C(=O)NCCOc2cccc(C)c2)cs1`, the cytotoxicity at 70.5 h is -8.98%. `CC(=O)Nc1nc(C(=O)NCCOc2cccc(F)c2)cs1`: the cytotoxicity at 70.5 h was -17.7%.

Consider `CC(C)N(C)Cc1ccccc1CNc1ccc2nncn2n1`, for which the cytotoxicity at 70.5 h was -12%. For the compound `COc1ccccc1C(=O)Nc1c(C)cnn1CC1CC1`, the cytotoxicity at 70.5 h was -21.8%. For the compound `CCOc1ncccc1C(=O)Nc1c(C)cnn1CC1CC1`, the cytotoxicity at 70.5 h is -9.45%.

As for `CN(C(=O)CN1CCCC1c1cnn(C)c1)C1(C#N)CCCCC1` (stereo not given), the cytotoxicity at 70.5 h is -4.65%. With `NC(=O)CCn1ccc(NC(=O)C2(c3ccc(F)cc3)CCC2)n1` the figure was 1.99%; with `Cc1cnn(CCC(=O)Nc2ccc(F)cc2OCC2CC2)c1`, -12.1%; with `O=C(CCn1cncn1)Nc1ccc(F)cc1OCC1CC1`, -9.3%. Take `O=C(Cn1cnnn1)Nc1ccc(F)cc1OCC1CC1`: the cytotoxicity at 70.5 h was -13.9%. To `CNC(=O)c1ccc(OC)c(NCc2noc(-c3cccs3)n2)c1` belongs -16.8%; to `O=C(c1cccnc1)N1CCN(c2ccnc3ccsc23)CC1`, -10.7%; to `Cc1cc(CNC(=O)NCc2cccs2)ccc1S(C)(=O)=O`, -8.79%. Turning to `CC(CNC(=O)c1c[nH]nn1)Oc1ccccc1Br` (stereo not given), the cytotoxicity at 70.5 h is -10.7%. To `CC(C)S(=O)(=O)N(C)C(=O)CCc1ccsc1` belongs -12%; to `Cc1ccc(C(=O)N2CCN(c3ccnc4ccsc34)CC2)o1`, -12%; to `CCCS(=O)(=O)N(C)C(=O)CCc1ccsc1`, 0.207%. With `COCCOc1ccc(NCc2cccc3cn[nH]c23)cn1` the figure was -7.69%; with `COCCOc1ncccc1C(=O)Nc1c(C)cnn1CC1CC1`, 8.78%. With `COCCOc1ccccc1C(=O)Nc1c(C)cnn1CC1CC1` the figure was -6.01%; with `Cc1cccc(OC2CCN(c3ncc(C#N)cc3Cl)CC2)n1`, -6.22%; with `CN(Cc1ccccc1)C(=O)CN1CCCC1c1cnn(C)c1` (stereo not given), -10.2%. For the compound `Cc1ccc(-c2nnc(C(C)NCCn3cc(C)cn3)o2)cc1` (stereo not given), the cytotoxicity at 70.5 h is -14.8%. As to `CCn1c(C)cc(C(=O)NCc2cccc(S(=O)(=O)NC)c2)c1C`, the cytotoxicity at 70.5 h is -4.15%. With `Cc1cc(SC(C)(C)C)ccc1NC(C)C(=O)NC(N)=O` (stereo not given) the figure was 9.69%; with `CCc1noc(CS(=O)(=O)C/C=C/c2ccccc2)n1`, -10.8%; with `CCn1c(C)cc(C(=O)NCc2ccc(CS(C)(=O)=O)cc2)c1C`, -7.81%. As to `Fc1cccc(NCc2ncc[nH]2)c1`, the cytotoxicity at 70.5 h was -8.15%. For `CNC(=O)c1cccc(CCNC(=O)N2CCc3ccccc3C2)c1`, the cytotoxicity at 70.5 h was -1.68%. For the compound `CC(C)c1nc(S(=O)(=O)N(C)c2ccc(F)cc2)c[nH]1`, the cytotoxicity at 70.5 h is -7.45%. Turning to `Cc1nccc(CNS(=O)(=O)N2CCCC2c2ccc(C)o2)n1` (stereo not given), the cytotoxicity at 70.5 h is -9.86%. `Cc1noc(CCCNS(=O)(=O)N2CCCC2c2ccco2)n1` (stereo not given): the cytotoxicity at 70.5 h is -9.07%.

Turning to `Cc1noc(CCNS(=O)(=O)N2CCCC2c2ccc(C)o2)n1` (stereo not given), the cytotoxicity at 70.5 h was 9.73%. In the case of `Cc1cc(SC(C)(C)C)ccc1NC(=O)CNC(N)=O`, the cytotoxicity at 70.5 h is -9.26%. With `Cc1cccc(I)c1C(=O)NCc1ncc[nH]1`, the cytotoxicity at 70.5 h is -10.8%.

Take `COc1cc(C(=O)N(C)Cc2cc(C(=O)O)c(C)o2)cc(OC)c1OC`: the cytotoxicity at 70.5 h was -7.77%. Turning to `Cc1cccc(C(=O)N2CCCC2c2c(C)n[nH]c2C)c1` (stereo not given), the cytotoxicity at 70.5 h is -2.31%.

With `Cc1cnn(CCNC(C)c2nnc(-c3cccc(Cl)c3)o2)c1` (stereo not given), the cytotoxicity at 70.5 h was -6.22%. In the case of `Cc1cccc(C(=O)Nc2ccc(OC3CCOCC3)c(C)c2)n1`, the cytotoxicity at 70.5 h came to 15.2%. As to `CC(C)c1nc(S(=O)(=O)N(C)c2cc(F)ccc2F)c[nH]1`, the cytotoxicity at 70.5 h was -4.89%. Turning to `CC(CC#N)N(C)Cc1ccccc1Cl` (stereo not given), the cytotoxicity at 70.5 h was -7.77%. For `CC(CCNC(=O)NCCc1ccncc1)c1ccccc1` (stereo not given), the cytotoxicity at 70.5 h was -0.345%.

For the compound `O=S(=O)(CCc1ccccc1)Cc1nc(C2CC2)no1`, the cytotoxicity at 70.5 h was -13%.

`C=C(C)CN(CC)Cc1nc(C2CC2)no1`: the cytotoxicity at 70.5 h is -5.54%. For the compound `O=C(Cn1cncn1)NCC1(O)CCCc2ccccc21` (stereo not given), the cytotoxicity at 70.5 h was 23.9%. As for `COc1ccc(NC(=O)C2CC2)cc1OCc1cccnc1`, the cytotoxicity at 70.5 h was found to be 23%. Regarding `Cc1noc(C)c1CC(=O)NCC(C(C)C)N1CCOCC1` (stereo not given), the cytotoxicity at 70.5 h was -10.6%. As to `CN(Cc1ccco1)C(=O)c1ccc(=O)n(C)c1`, the cytotoxicity at 70.5 h is -6.1%. With `Cc1cccc(OCC(=O)N(Cc2ccncc2)C2CC2)c1`, the cytotoxicity at 70.5 h was -0.457%. For `COc1ccccc1C(C)N1CCN(S(=O)(=O)N(C)C)CC1` (stereo not given), the cytotoxicity at 70.5 h was 4.97%. Take `COc1ccccc1C1(CNc2ncc(S(N)(=O)=O)s2)CC1`: the cytotoxicity at 70.5 h was -6.5%. In the case of `NC(=O)C1CCN(Cc2ccc(S(=O)(=O)N3CCCC3)o2)CC1`, the cytotoxicity at 70.5 h was -3.5%. `O=C(CCN1CCCCC1c1cc2ccccc2[nH]1)N1CCOCC1` (stereo not given): the cytotoxicity at 70.5 h amounted to 8.08%. Take `O=C(Nc1ccccc1Oc1cccc(F)c1)NC1CCS(=O)(=O)C1` (stereo not given): the cytotoxicity at 70.5 h was found to be 2.26%. To `Cc1cc(CNC(=O)c2ccc(F)c(COCC3CC3)c2)no1` belongs -9.69%; to `Cc1cc(C(=O)Nc2ccc(N3CCCC3)cn2)ccc1-n1cncn1`, -1.17%; to `COCCC1(CNC(=O)NC2CCCN(C)C2)CC1` (stereo not given), 0.563%. In the case of `CCc1nsc(N2CCc3sccc3C2)n1`, the cytotoxicity at 70.5 h was -2.5%.

For the compound `O=C(c1ccc(O)c(Cl)c1)N(Cc1ccncc1)C1CC1`, the cytotoxicity at 70.5 h was -2.89%.

Regarding `COC(C)(C)c1noc(C2(C#N)CCCCC2)n1`, the cytotoxicity at 70.5 h is -0.329%.

For the compound `Cn1cc(CCNC(=O)N2CCCc3c(F)cccc32)cn1`, the cytotoxicity at 70.5 h stood at 3.99%.

`CC(NCC(=O)Nc1ccc(N2CCCCCC2)cc1)c1cccs1` (stereo not given): the cytotoxicity at 70.5 h is -8.9%. As for `CN(CC(=O)NCC(=O)Nc1ccc(F)cc1)Cc1cccs1`, the cytotoxicity at 70.5 h was -20.9%. To `COc1ccc(Oc2cc(CN)ccn2)cc1` belongs 2.32%; to `CC(NCC(=O)NCC(=O)Nc1ccc(F)cc1)c1cccs1` (stereo not given), -17.8%; to `CN1CC(C(=O)NCCc2ccc3c(c2)OCCO3)CC1=O` (stereo not given), -1.68%. Regarding `Cc1nnc(NC(=O)NCCCN2CCC(C(N)=O)CC2)s1`, the cytotoxicity at 70.5 h is -8.8%. To `CCC(C)C(=O)Nc1ccc(CCN2CCOCC2)cc1` (stereo not given) belongs -18.2%; to `NC(=O)C1CCN(CCCNC(=O)Nc2nccs2)CC1`, -25.9%; to `NC(=O)NC(CC(=O)N1CCc2sccc2C1)c1cccc(Br)c1` (stereo not given), -18.1%. For the compound `CN1CC(C(=O)NCCc2ccc(F)c(Br)c2)CC1=O` (stereo not given), the cytotoxicity at 70.5 h was -8.01%.

`Cn1ncc2c1CCCC2NCc1ccc(OCc2cccnc2)cc1` (stereo not given): the cytotoxicity at 70.5 h is -14.4%.

Regarding `O=C(CNc1ccc(OC2CCOC2)cc1)NCc1ccc(F)cc1` (stereo not given), the cytotoxicity at 70.5 h is -10.9%. To `COc1cc(F)c(NCc2nc3ccccc3n2C)cc1OC` belongs -15.9%. With `COCCOc1ccc(F)cc1NCc1nc2ccccc2n1C` the figure was 11.4%. In the case of `Cc1ccc(CCc2nc(C3CCOC3)no2)o1` (stereo not given), the cytotoxicity at 70.5 h came out at 6.82%.

Turning to `CC(=O)N1CCCC(C(=O)NCCc2ccc(F)c(Br)c2)C1` (stereo not given), the cytotoxicity at 70.5 h was -9.08%. To `CC(=O)N(C)C1CCCc2nc(C)sc21` (stereo not given) belongs -11%. Consider `c1cnn(C2CN(Cc3noc(C4CC4)n3)C2)c1`, for which the cytotoxicity at 70.5 h is -7.11%. Take `O=C(NCCn1ccnc1)c1csc2c1CCCC2`: the cytotoxicity at 70.5 h was -10.8%. In the case of `Cc1cc(CNC(=O)CCc2ccc(S(N)(=O)=O)cc2)no1`, the cytotoxicity at 70.5 h is -11.1%. As to `COCCCNC(=O)C1(NC(=O)c2ccc3[nH]ncc3c2)CCCC1`, the cytotoxicity at 70.5 h is -15.2%. In the case of `CC(C)CNC(=O)CSc1nnc(OC(C)C)s1`, the cytotoxicity at 70.5 h is -10.7%. For `O=C(NC1(C(=O)NC2CCCC2)CCCC1)c1ccc2[nH]ncc2c1`, the cytotoxicity at 70.5 h is -8.68%.

`Cc1cc(C)c(CNC(=O)NCc2nnc3n2CCCC3)c(=O)[nH]1`: the cytotoxicity at 70.5 h is -13.4%. To `CCN(CC)c1ccc(CNC(=O)C2(C)CCOCC2)cc1F` belongs 14.4%; to `CC(C)c1nc(C2CCCN(c3cnc4ccccc4n3)C2)no1` (stereo not given), -5.55%. To `CCc1noc(CN(C)C(=O)COc2cc(Cl)cc(Cl)c2)n1` belongs 1.61%. In the case of `CC(C)c1nc(C2CCCN2c2cnc3cc(F)c(F)cc3n2)no1` (stereo not given), the cytotoxicity at 70.5 h is -5.58%.

Consider `O=S1(=O)CCC(N(CCc2ccc3c(c2)CCO3)C2CC2)C1` (stereo not given), for which the cytotoxicity at 70.5 h is -1.96%.

Turning to `N#Cc1cccc(S(=O)(=O)NC(=O)COCC(F)(F)F)c1`, the cytotoxicity at 70.5 h is 0.976%. As for `CC(=O)NC1CCCN(C(=O)CNc2cccc(C)c2Cl)C1` (stereo not given), the cytotoxicity at 70.5 h amounted to 21.2%. To `COc1cc(C(=O)NCCc2cccc(C)c2)on1` belongs 2.66%; to `COc1ccc(NC(=O)NCc2cccc(N(C)C)n2)c(Cl)c1`, -8%; to `CN(C)c1cccc(CNC(=O)Nc2cc(C#N)ccc2Cl)n1`, -4.82%. Take `CCN(C)C1CCCc2nc(C)sc21` (stereo not given): the cytotoxicity at 70.5 h is -5.07%. To `CCC(C)NS(=O)(=O)Cc1cccc(NC(=O)c2cc[nH]c2C)c1` (stereo not given) belongs -5.4%; to `O=C(NCCCn1ccnc1)c1csc2c1CCCC2`, 15.4%; to `COCCNC(=O)CSc1nnc(OC(C)C)s1`, -10.2%.

In the case of `CC(C)OCCCNC(=O)CSc1nnc(OC(C)C)s1`, the cytotoxicity at 70.5 h was -4.19%. `CC(C)c1nc(C2CCCNC2)no1` (stereo not given): the cytotoxicity at 70.5 h was 14.1%. In the case of `COc1ccccc1CNC(C)c1ccc(-n2ccnc2)cc1` (stereo not given), the cytotoxicity at 70.5 h amounted to 32.7%.
